Data taken from PubChem BioAssay (NCI).
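Cells were grown in 96-well plates and exposed to each compound for 48 hours at five concentrations; endpoints were interpolated linearly between bracketing concentrations, or set to the highest concentration if not reached. Here, GI50 denotes the concentration required for 50% inhibition of growth. TGI: concentration producing complete growth inhibition.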

What was measured:
Experiment in all cases: growth of human tumour cells (NCI), 48 h
CAKI-1 renal = test system: CAKI-1 renal
UACC-62 melanoma = test system: UACC-62 melanoma
KM20L2 colon = test system: KM20L2 colon
SK-MEL-5 melanoma = test system: SK-MEL-5 melanoma
U251 CNS = test system: U251 CNS
K-562 leukemia = test system: K-562 leukemia
MDA-MB-231 breast = test system: MDA-MB-231 breast
SK-OV-3 ovarian = test system: SK-OV-3 ovarian
HOP-92 NSCLC = test system: HOP-92 NSCLC
COLO 205 colon = test system: COLO 205 colon
BT-549 breast = test system: BT-549 breast
UO-31 renal = test system: UO-31 renal
LXFL 529 NSCLC = test system: LXFL 529 NSCLC
EKVX NSCLC = test system: EKVX NSCLC
ACHN renal = test system: ACHN renal
NCI-H522 lung = test system: NCI-H522 lung
TK-10 renal = test system: TK-10 renal
HCC-2998 colon = test system: HCC-2998 colon
SNB-19 CNS = test system: SNB-19 CNS
PC-3 prostate = test system: PC-3 prostate
IGROV1 ovarian = test system: IGROV1 ovarian
DU-145 prostate = test system: DU-145 prostate
HCT-116 colon = test system: HCT-116 colon
MCF7 breast = test system: MCF7 breast
DMS 114 small cell lung = test system: DMS 114 small cell lung
SR leukemia = test system: SR leukemia
RXF 393 renal = test system: RXF 393 renal
HS 578T breast = test system: HS 578T breast
SNB-78 CNS = test system: SNB-78 CNS
MOLT-4 leukemia = test system: MOLT-4 leukemia
A549 NSCLC = test system: A549 NSCLC
NCI-H460 lung = test system: NCI-H460 lung
MDA-N = test system: MDA-N
UACC-257 melanoma = test system: UACC-257 melanoma
CCRF-CEM leukemia = test system: CCRF-CEM leukemia
MALME-3M melanoma = test system: MALME-3M melanoma
NCI-H226 lung = test system: NCI-H226 lung
OVCAR-3 ovarian = test system: OVCAR-3 ovarian
LOX IMVI melanoma = test system: LOX IMVI melanoma
MDA-MB-435 = test system: MDA-MB-435
OVCAR-5 ovarian = test system: OVCAR-5 ovarian
OVCAR-8 ovarian = test system: OVCAR-8 ovarian
HT29 colon = test system: HT29 colon
NCI/ADR-RES ovarian = test system: NCI/ADR-RES ovarian
HOP-62 NSCLC = test system: HOP-62 NSCLC
DMS 273 small cell lung = test system: DMS 273 small cell lung
RPMI-8226 leukemia = test system: RPMI-8226 leukemia
SF-268 CNS = test system: SF-268 CNS
SW-620 colon = test system: SW-620 colon
KM12 colon = test system: KM12 colon

SMILES: C[CH2][Sn]([CH2]C)([O]C(=O)c1ccccc1F)[O]C(=O)c1ccccc1F
- GI50 (CAKI-1 renal): 11.9 µM
- TGI (CAKI-1 renal): 19.6 µM
- GI50 (UACC-62 melanoma): 27.2 µM
- TGI (UACC-62 melanoma): 52.4 µM
- GI50 (KM20L2 colon): > 83.8 µM
- TGI (KM20L2 colon): > 100 µM
- GI50 (SK-MEL-5 melanoma): 50.2 µM
- TGI (SK-MEL-5 melanoma): > 100 µM
- GI50 (U251 CNS): 47.4 µM
- TGI (U251 CNS): > 85.1 µM
- GI50 (K-562 leukemia): 16.2 µM
- TGI (K-562 leukemia): 55.1 µM
- GI50 (MDA-MB-231 breast): > 100 µM
- TGI (MDA-MB-231 breast): > 100 µM
- GI50 (SK-OV-3 ovarian): > 100 µM
- TGI (SK-OV-3 ovarian): > 100 µM
- GI50 (HOP-92 NSCLC): 18 µM
- TGI (HOP-92 NSCLC): 37.7 µM
- GI50 (COLO 205 colon): 38.8 µM
- TGI (COLO 205 colon): 62.3 µM
- GI50 (BT-549 breast): 18.1 µM
- TGI (BT-549 breast): 35.8 µM
- GI50 (UO-31 renal): > 55.2 µM
- TGI (UO-31 renal): > 67.3 µM
- GI50 (LXFL 529 NSCLC): 11.1 µM
- TGI (LXFL 529 NSCLC): 24.2 µM
- GI50 (EKVX NSCLC): > 100 µM
- TGI (EKVX NSCLC): > 100 µM
- GI50 (ACHN renal): 32.7 µM
- TGI (ACHN renal): 48.3 µM
- GI50 (NCI-H522 lung): 2.1 µM
- TGI (NCI-H522 lung): 6.84 µM
- GI50 (TK-10 renal): 18.1 µM
- TGI (TK-10 renal): 33.4 µM
- GI50 (HCC-2998 colon): > 100 µM
- TGI (HCC-2998 colon): > 100 µM
- GI50 (SNB-19 CNS): 36.6 µM
- TGI (SNB-19 CNS): 60.6 µM
- GI50 (PC-3 prostate): > 100 µM
- TGI (PC-3 prostate): > 100 µM
- GI50 (IGROV1 ovarian): > 100 µM
- TGI (IGROV1 ovarian): > 100 µM
- GI50 (DU-145 prostate): > 100 µM
- TGI (DU-145 prostate): > 100 µM
- GI50 (HCT-116 colon): > 69.8 µM
- TGI (HCT-116 colon): > 100 µM
- GI50 (MCF7 breast): 27.4 µM
- TGI (MCF7 breast): 80.6 µM
- GI50 (DMS 114 small cell lung): 20.4 µM
- TGI (DMS 114 small cell lung): 43.1 µM
- GI50 (SR leukemia): 22.6 µM
- TGI (SR leukemia): > 100 µM
- GI50 (RXF 393 renal): 15.4 µM
- TGI (RXF 393 renal): 35.4 µM
- GI50 (HS 578T breast): 42.2 µM
- TGI (HS 578T breast): > 100 µM
- GI50 (SNB-78 CNS): 20.6 µM
- TGI (SNB-78 CNS): 39 µM
- GI50 (MOLT-4 leukemia): 28.8 µM
- TGI (MOLT-4 leukemia): > 91 µM
- GI50 (A549 NSCLC): > 100 µM
- TGI (A549 NSCLC): > 100 µM
- GI50 (NCI-H460 lung): > 100 µM
- TGI (NCI-H460 lung): > 100 µM
- GI50 (MDA-N): > 100 µM
- TGI (MDA-N): > 100 µM
- GI50 (UACC-257 melanoma): 32 µM
- TGI (UACC-257 melanoma): > 46.4 µM
- GI50 (CCRF-CEM leukemia): 8.77 µM
- TGI (CCRF-CEM leukemia): 35.6 µM
- GI50 (MALME-3M melanoma): 16.5 µM
- TGI (MALME-3M melanoma): 31.4 µM
- GI50 (NCI-H226 lung): 14.7 µM
- TGI (NCI-H226 lung): 22.1 µM
- GI50 (OVCAR-3 ovarian): > 100 µM
- TGI (OVCAR-3 ovarian): > 100 µM
- GI50 (LOX IMVI melanoma): 19.2 µM
- TGI (LOX IMVI melanoma): 40.8 µM
- GI50 (MDA-MB-435): > 100 µM
- TGI (MDA-MB-435): > 100 µM
- GI50 (OVCAR-5 ovarian): > 97.4 µM
- TGI (OVCAR-5 ovarian): > 100 µM
- GI50 (OVCAR-8 ovarian): > 70.5 µM
- TGI (OVCAR-8 ovarian): > 100 µM
- GI50 (HT29 colon): 59.2 µM
- TGI (HT29 colon): > 100 µM
- GI50 (NCI/ADR-RES ovarian): > 100 µM
- TGI (NCI/ADR-RES ovarian): > 100 µM
- GI50 (HOP-62 NSCLC): > 100 µM
- TGI (HOP-62 NSCLC): > 100 µM
- GI50 (DMS 273 small cell lung): > 67 µM
- TGI (DMS 273 small cell lung): > 100 µM
- GI50 (RPMI-8226 leukemia): 17.2 µM
- TGI (RPMI-8226 leukemia): 45.7 µM
- GI50 (SF-268 CNS): 32.1 µM
- TGI (SF-268 CNS): 50.8 µM
- GI50 (SW-620 colon): 28.3 µM
- TGI (SW-620 colon): 73.7 µM
- GI50 (KM12 colon): > 100 µM
- TGI (KM12 colon): > 100 µM
